Laboratory results taken from the NIST ThermoML archive (doi:10.1021/acs.jced.6b00350).
Where “and” joins values, the source holds several entries; their conditions need not be identical. Equal entries are not always repeated. ± gives the expanded uncertainty stated by the source.

Settings: Liquid, Hot wire method

FC(F)CC(F)(F)F [1,1,1,3,3-pentafluoropropane]
Settings	thermal conductivity
242.09 K, 15292 kPa	0.1107 ± 0.0014 W/m/K
242.09 K, 33385 kPa	0.1154 ± 0.0015 W/m/K
242.09 K, 46702 kPa	0.1187 ± 0.0015 W/m/K
242.09 K, 46703 kPa	0.1195 ± 0.0015 W/m/K
242.1 K, 15296 kPa	0.1107 ± 0.0014 W/m/K
242.1 K, 21026 kPa	0.1124 ± 0.0014 W/m/K
242.1 K, 21045 kPa	0.1126 ± 0.0014 W/m/K
242.1 K, 33384 kPa	0.1155 ± 0.0015 W/m/K
242.1 K, 53712 kPa	0.1203 ± 0.0015 W/m/K
242.11 K, 9885 kPa	0.1091 ± 0.0014 W/m/K
242.11 K, 9889 kPa	0.1086 ± 0.0014 W/m/K
242.11 K, 26987 kPa	0.1139 ± 0.0014 W/m/K
242.11 K, 39778 kPa	0.1171 ± 0.0015 W/m/K
242.12 K, 26965 kPa	0.1139 ± 0.0014 W/m/K
242.12 K, 39775 kPa	0.1171 ± 0.0015 W/m/K
242.12 K, 53701 kPa	0.1203 ± 0.0015 W/m/K
242.12 K, 61286 kPa	0.1221 ± 0.0015 W/m/K
242.13 K, 61278 kPa	0.1219 ± 0.0015 W/m/K
242.14 K, 68636 kPa	0.1235 ± 0.0016 W/m/K
242.14 K, 68676 kPa	0.1235 ± 0.0016 W/m/K
242.19 K, 312 kPa	0.1058 ± 0.0014 W/m/K and 0.1064 ± 0.0014 W/m/K
242.19 K, 4998 kPa	0.1075 ± 0.0014 W/m/K
242.19 K, 5009 kPa	0.1078 ± 0.0014 W/m/K
242.51 K, 46692 kPa	0.1189 ± 0.0015 W/m/K
242.52 K, 46700 kPa	0.1191 ± 0.0015 W/m/K
242.54 K, 33390 kPa	0.1155 ± 0.0015 W/m/K
242.54 K, 33403 kPa	0.1154 ± 0.0015 W/m/K
242.54 K, 53700 kPa	0.1204 ± 0.0015 W/m/K
242.54 K, 53711 kPa	0.1205 ± 0.0015 W/m/K
242.54 K, 61277 kPa	0.1221 ± 0.0015 W/m/K
242.55 K, 15291 kPa	0.1107 ± 0.0014 W/m/K
242.55 K, 21035 kPa	0.1123 ± 0.0014 W/m/K
242.55 K, 21038 kPa	0.1121 ± 0.0014 W/m/K
242.55 K, 39775 kPa	0.117 ± 0.0015 W/m/K
242.55 K, 39776 kPa	0.1173 ± 0.0015 W/m/K
242.55 K, 61245 kPa	0.122 ± 0.0015 W/m/K
242.55 K, 68688 kPa	0.1238 ± 0.0016 W/m/K
242.56 K, 26980 kPa	0.1136 ± 0.0014 W/m/K
242.56 K, 26983 kPa	0.114 ± 0.0014 W/m/K
242.56 K, 68673 kPa	0.1236 ± 0.0016 W/m/K
242.57 K, 9883 kPa	0.109 ± 0.0014 W/m/K
242.58 K, 9889 kPa	0.1092 ± 0.0014 W/m/K
242.65 K, 5012 kPa	0.1074 ± 0.0014 W/m/K
242.66 K, 307 kPa	0.1056 ± 0.0014 W/m/K
242.66 K, 5012 kPa	0.1074 ± 0.0014 W/m/K
242.67 K, 311 kPa	0.1059 ± 0.0014 W/m/K
242.99 K, 46699 kPa	0.1186 ± 0.0015 W/m/K
242.99 K, 46703 kPa	0.1187 ± 0.0015 W/m/K
242.99 K, 53703 kPa	0.1204 ± 0.0015 W/m/K
242.99 K, 53705 kPa	0.1205 ± 0.0015 W/m/K
243 K, 61280 kPa	0.122 ± 0.0015 W/m/K
243.01 K, 33387 kPa	0.1153 ± 0.0015 W/m/K
243.01 K, 61272 kPa	0.122 ± 0.0015 W/m/K
243.01 K, 68624 kPa	0.1235 ± 0.0016 W/m/K
243.01 K, 68665 kPa	0.1235 ± 0.0016 W/m/K
243.02 K, 33391 kPa	0.1157 ± 0.0015 W/m/K
243.02 K, 39783 kPa	0.117 ± 0.0015 W/m/K
243.03 K, 39791 kPa	0.1173 ± 0.0015 W/m/K
243.04 K, 15285 kPa	0.1108 ± 0.0014 W/m/K
243.04 K, 21046 kPa	0.1119 ± 0.0014 W/m/K
243.04 K, 26979 kPa	0.1139 ± 0.0014 W/m/K
243.05 K, 21037 kPa	0.1122 ± 0.0014 W/m/K
243.05 K, 26975 kPa	0.1137 ± 0.0014 W/m/K
243.06 K, 15300 kPa	0.1105 ± 0.0014 W/m/K
243.07 K, 9881 kPa	0.1091 ± 0.0014 W/m/K
243.07 K, 9885 kPa	0.1094 ± 0.0014 W/m/K
243.16 K, 5024 kPa	0.1074 ± 0.0014 W/m/K
243.17 K, 305 kPa	0.1059 ± 0.0014 W/m/K
243.17 K, 5015 kPa	0.1075 ± 0.0014 W/m/K
243.18 K, 306 kPa	0.1061 ± 0.0014 W/m/K
261.13 K, 36952 kPa	0.1131 ± 0.0014 W/m/K
261.13 K, 36968 kPa	0.1135 ± 0.0014 W/m/K
261.17 K, 4289 kPa	0.1031 ± 0.0013 W/m/K
261.17 K, 4298 kPa	0.1027 ± 0.0013 W/m/K
261.17 K, 8849 kPa	0.103 ± 0.0013 W/m/K
261.19 K, 14126 kPa	0.1062 ± 0.0014 W/m/K
261.2 K, 14118 kPa	0.106 ± 0.0014 W/m/K
261.21 K, 254 kPa	0.1005 ± 0.0013 W/m/K
261.21 K, 260 kPa	0.1005 ± 0.0013 W/m/K
261.21 K, 25237 kPa	0.1087 ± 0.0014 W/m/K
261.22 K, 25223 kPa	0.1081 ± 0.0014 W/m/K
261.23 K, 31202 kPa	0.1113 ± 0.0014 W/m/K
261.23 K, 31204 kPa	0.1116 ± 0.0014 W/m/K
261.52 K, 43978 kPa	0.1147 ± 0.0015 W/m/K
261.55 K, 51260 kPa	0.1154 ± 0.0015 W/m/K
261.55 K, 51262 kPa	0.1153 ± 0.0015 W/m/K
261.56 K, 8838 kPa	0.1026 ± 0.0013 W/m/K
261.57 K, 8847 kPa	0.1029 ± 0.0013 W/m/K
261.57 K, 58812 kPa	0.1174 ± 0.0015 W/m/K
261.58 K, 14132 kPa	0.1051 ± 0.0013 W/m/K
261.58 K, 58797 kPa	0.1178 ± 0.0015 W/m/K
261.6 K, 25212 kPa	0.1084 ± 0.0014 W/m/K
261.6 K, 31216 kPa	0.1112 ± 0.0014 W/m/K
261.61 K, 256 kPa	0.09949 ± 0.0013 W/m/K
261.61 K, 263 kPa	0.09978 ± 0.0013 W/m/K
261.61 K, 19564 kPa	0.1066 ± 0.0014 W/m/K
261.61 K, 68826 kPa	0.1202 ± 0.0015 W/m/K
261.61 K, 68837 kPa	0.1206 ± 0.0015 W/m/K
261.62 K, 19569 kPa	0.107 ± 0.0014 W/m/K
261.63 K, 68933 kPa	0.1198 ± 0.0015 W/m/K
261.64 K, 68930 kPa	0.1197 ± 0.0015 W/m/K
261.9 K, 36964 kPa	0.1125 ± 0.0014 W/m/K
261.92 K, 43962 kPa	0.1136 ± 0.0014 W/m/K
261.93 K, 43919 kPa	0.1146 ± 0.0015 W/m/K
261.94 K, 51257 kPa	0.1157 ± 0.0015 W/m/K
261.95 K, 51262 kPa	0.1157 ± 0.0015 W/m/K
261.96 K, 58819 kPa	0.1174 ± 0.0015 W/m/K
261.96 K, 58829 kPa	0.1179 ± 0.0015 W/m/K
261.99 K, 68802 kPa	0.1199 ± 0.0015 W/m/K
261.99 K, 68824 kPa	0.1198 ± 0.0015 W/m/K
262 K, 8855 kPa	0.1037 ± 0.0013 W/m/K
262 K, 8858 kPa	0.1032 ± 0.0013 W/m/K
262 K, 14134 kPa	0.105 ± 0.0013 W/m/K
262.01 K, 4294 kPa	0.1017 ± 0.0013 W/m/K
262.01 K, 4301 kPa	0.1014 ± 0.0013 W/m/K
262.01 K, 14121 kPa	0.1049 ± 0.0013 W/m/K
262.01 K, 25254 kPa	0.1088 ± 0.0014 W/m/K
262.01 K, 25264 kPa	0.1087 ± 0.0014 W/m/K
262.01 K, 31199 kPa	0.1102 ± 0.0014 W/m/K and 0.1104 ± 0.0014 W/m/K
262.01 K, 68921 kPa	0.1199 ± 0.0015 W/m/K
262.02 K, 68914 kPa	0.1199 ± 0.0015 W/m/K
262.04 K, 19538 kPa	0.1069 ± 0.0014 W/m/K
262.04 K, 19563 kPa	0.1063 ± 0.0014 W/m/K
262.06 K, 260 kPa	0.1002 ± 0.0013 W/m/K
262.06 K, 263 kPa	0.1001 ± 0.0013 W/m/K
262.33 K, 36929 kPa	0.1119 ± 0.0014 W/m/K
262.35 K, 36937 kPa	0.1119 ± 0.0014 W/m/K
262.36 K, 43961 kPa	0.1135 ± 0.0014 W/m/K
262.36 K, 43965 kPa	0.1138 ± 0.0014 W/m/K
262.37 K, 51242 kPa	0.1157 ± 0.0015 W/m/K
262.38 K, 51253 kPa	0.1155 ± 0.0015 W/m/K
262.39 K, 58814 kPa	0.1181 ± 0.0015 W/m/K
262.39 K, 58816 kPa	0.1176 ± 0.0015 W/m/K
262.4 K, 68835 kPa	0.1199 ± 0.0015 W/m/K
262.41 K, 68836 kPa	0.1198 ± 0.0015 W/m/K
262.43 K, 68875 kPa	0.1199 ± 0.0015 W/m/K
262.43 K, 68907 kPa	0.1196 ± 0.0015 W/m/K
262.46 K, 8826 kPa	0.1033 ± 0.0013 W/m/K
262.46 K, 25272 kPa	0.1083 ± 0.0014 W/m/K
